Results published in publication PMC9450014, “The evaluation of ADME and pharmacokinetic properties of decoquinate derivatives for the treatment of malaria” (Frontiers in Pharmacology, 2022).
Read-outs that look alike come from different tables or passages of the source.

What was measured:
[1] = Non-specific liver microsomal binding, MLM; format: in vitro ADME; settings: mouse liver microsomes
Procedure: (§1) Plasma protein binding was determined in pooled human plasma using an ultracentrifugation method. Stock solutions of test compounds were diluted in phosphate buffer and spiked into plasma in deep well 96-well plates. An aliquot of each compound was immediately precipitated with ice cold acetonitrile containing the internal standard carbamazepine (0.1 μM). These served as total concentration samples. After incubation in a water bath (37°C for 1 h), samples were transferred to ultracentrifuge tubes in duplicate and centrifuged for 4 h at 37°C and 30,000 g (Optima L-80XP, Beckman). Following centrifugation, the supernatant was transferred to the plate containing the total concentration samples and precipitated with ice cold acetonitrile containing the internal standard. Samples were analysed by LC-MS/MS (Shimadzu HPLC coupled with an AB Sciex 3200 Q TRAP MS). Non-specific binding in mouse liver microsomes (MLM) and human liver microsomes (HLM) were also determined with the ultracentrifugation method. Stock solutions of compounds (10 mM) were added in duplicate to microsome solution (0.5 mg/mL) in phosphate buffer (pH 7.4) to obtain a final drug concentration of 1 μM. The same method as for plasma protein binding was utilized. Analyte concentrations of all compounds were determined via LC-MS/MS (reverse phase Gemini NX-C18 column and Shimadzu HPLC coupled with an AB Sciex 3200 Q TRAP MS).

[2] = Kinetic solubility in PBS (HPLC-DAD); format: physicochemical; settings: phosphate buffer saline (PBS); for solubility kinetic at 2 h: aqueous buffer, kinetic from dmso stock
Procedure: Stock concentrations of test samples (10 mM) were prepared in DMSO and diluted to a final concentration of […] in phosphate buffer saline (PBS) solutions at pH 2, 6.5, and 7.4 in flat-bottomed 96-well plates. A three-point calibration curve of each control and test compound was prepared from stock solutions in DMSO. Plates were agitated on an orbital shaker at room temperature for 2 h at 200 rpm and subsequently analysed using a reverse phase Gemini NX-C18 column (5 μM, 2.1 mm × 50 mm) with an Agilent 1,200 Rapid Resolution HPLC and diode array detection.

[3] = test system: multidrug resistant Pf K1; set-up: method as in Beteck et al., 2018; settings: ref Beteck et al., 2018; read-out: IC50 against multidrug resistant Pf K1; cited from earlier work
[4] = Metabolic stability in human liver microsomes; format: in vitro ADME
Procedure: (§2) A 5-point metabolic stability assay in human and mouse liver microsomes were performed in duplicate in 96-well plates. Stock solution of RMB005, −059 and 060 prepared in DMSO were individually incubated at 37°C in mouse and pooled human liver microsomes (0.4 mg/mL). An aliquot was removed at 0 min and quenched with ice cold acetonitrile containing the internal standard carbamazepine (0.1 μM). The cofactor NADPH was added, and the reactions were subsequently stopped at time points 5, 10, 30, and 60 min by removal of an aliquot and quenching with ice cold acetonitrile containing the internal standard. The supernatant of all samples were analysed via LC-MS/MS analysis (reverse phase Gemini NX-C18 column and Shimadzu HPLC and AB Sciex 3200 Q TRAP MS). Calculation of in vitro t1/2, intrinsic clearance rate (CLint) and predicted in vivo clearance (CLH) was carried out using the following equations ([Obach 1999]). CLintClint= 0.693/t1/2(min) ×Volume of incubation (μL)/microsomal protein (μg) Where t1/2 is calculated in minutes.
(§3) Predicted in vivo CLH CLH=Q × fu(plasma)×CLint/fu(mic)/Q+ fu(plasma)× CLint/fu(mic) Where Q is the hepatic blood flow of mouse (90 mL/min/kg) or human (20.7 mL/min/kg). Fu(plasma) is the unbound drug fraction in the plasma and fu(mic) is the unbound fraction in the microsomes.
(§4) The equation below was used in the case of RMB059 and -060, where protein-binding data were not available. CLH=Q × CLint/Q+ CLint

[5] = Metabolic stability in mouse liver microsomes; format: in vitro ADME
Procedure: as §2, §3, §4

[6] = In vivo pharmacokinetics, intravenous administration; set-up: species or system C57BL/6 mice; settings: C57BL/6, mouse, iv, mice, whole blood, dosed compound measured
Procedure: Healthy C57BL/6 mice each weighing approximately 25 g were maintained at the University of Cape Town animal facility. Mice were housed in 27 × 21 × 28 cm cages (n = 3) under controlled environmental conditions at 22 ± 2°C, humidity of 55 ± 15% and a 12-hour light/dark cycle. Food and water were available ad libitum. Mice were acclimatised to the experimental environment for 4–5 days prior to initiating the experiments. […] The total volume of administration was 80 μL. Blood samples were collected post-dose in lithium heparin microvials via tail bleeding at predetermined intervals at 0.16, 0.5, 1, 3, 5, 8, 10, and 24 h. Samples were gently vortexed and stored at −80°C until analysis. A quantitative LC-MS/MS assay was used to determine whole-blood concentrations of RMB005, −059 and −060. Whole blood samples (20 μL) were treated with 100 μL ice cold acetonitrile containing the compound RMB073 used previously for determination of whole blood concentrations in analysis of TB-active compounds, as internal standard (200 ng/ml) ([Tanner et al., 2019]). The mixture was vortexed vigorously for 1 min, and 5 µL of the supernatant were injected onto the analytical column following centrifugation (5,590 g for 5 min). Gradient elution was carried out using a Gemini NX-C18 analytical column (5 μm, 2.1 mm × 50 mm). The aqueous mobile phase consisted of 5 mm ammonium acetate with 0.1% acetic acid in deionised water, while the organic phase consisted of 0.1% acetic acid in acetonitrile. A Shimadzu HPLC and reverse phase Gemini NX-C18 column coupled to an AB Sciex 3200 Q TRAP MS was operated at unit resolution in the multiple reaction monitoring (MRM) mode. […] The calibration standards ranged from 2 ng/mL to 3,000 ng/mL for RMB005, and 2 ng/mL to 4,000 ng/mL for RMB059, −060 and DQ. Drug concentration versus time plots for each compound were used to determine maximal drug concentration C max, time T max to reach C max, elimination half-life t 1/2 and the area under the concentration-time curve from time zero to infinity, AUC0-inf. From these values the following PK parameters—clearance CL, volume of distribution (Vd) and oral bioavailability (BA) were determined using the non-compartmental analysis Microsoft Excel Add-In PKSolver ([Zhang et al., 2010]).

[7] = Non-specific liver microsomal binding, HLM; format: in vitro ADME; settings: human liver microsomes
Procedure: as §1

[8] = Plasma protein binding (ultracentrifugation); format: in vitro ADME; settings: pooled plasma; human plasma; read-out: Bound to plasma proteins (converted)
Procedure: as §1

Compound: CCCCCCCCCCOc1cc2c(=O)c(C(=O)NCCOCCO)c[nH]c2cc1OCC [RMB005]
- Bound to microsomes [1]: 99%
- solubility kinetic at 2 h ([2]; PBS pH 2, read-out: Kinetic solubility pH 2): < 5 µM
- solubility kinetic at 2 h ([2]; PBS pH 6.5, read-out: Kinetic solubility pH 6.5): < 5 µM
- solubility kinetic at 2 h ([2]; PBS pH 7.4, read-out: Kinetic solubility pH 7.4): < 5 µM
- solubility at 2 h ([2]; all pH levels tested (pH 2, 6.5, 7.4)): < 5 µM
- IC50 [3]: 64.8 nM
- CLint scaled ([4]; human, pooled liver microsomes, calculated from t1/2 in HLM, read-out: In vitro CLint HLM): 4 mL/min/kg
- half-life ([4]; pooled liver microsomes, human liver microsomes, NADPH, read-out: Degradation half-life HLM): > 2.5 h
- Estimated in vivo CLH HLM ([4]; protein binding data included): 12.6 mL/min/kg
- half-life ([5]; mouse liver microsomes, NADPH, read-out: Degradation half-life MLM): 1.22 h
- CLint scaled ([5]; mouse, liver microsomes, calculated from t1/2 in MLM, read-out: In vitro CLint MLM): 104 mL/min/kg
- Estimated in vivo CLH MLM ([5]; protein binding data included): 81.2 mL/min/kg
- Vd ([6]; 5 mg/kg per table footnote): 6.59 ± 1.83 L/kg
- clearance ([6]; 5 mg/kg per table footnote): 28.5 ± 2.17 mL/min/kg
- half-life ([6]; 5 mg/kg per table footnote (10 mg/kg per method)): 2.62 ± 0.61 h
- Bound to microsomes [7]: 99%
- fraction unbound at 1 h [8]: 0.08
